Assay results taken from patent US10894793B2, “Bicyclic pyridine, pyrazine, and pyrimidine derivatives as PI3K beta inhibitors” (Janssen Pharmaceutica NV, priority 2016, dated 2021).
Where two headings read alike, the source gives them in different places.

Legend:
[1] = system: Akt phosphorylated at Thr308 in PC-3 cells; experiment: Cellular assay: phosphorylation of Akt (Thr308) in PC-3 cells, MSD ELISA; assay type: cell-based; conditions: 60 min compound incubation, read-out: IC50 pAkt_Thr308
Protocol: (§1) Cellular activity of PI3Kβ inhibitors was determined by quantifying the phosphorylation of Akt in PC-3 cells. Akt phosphorylated at Ser473 and Thr308 were measured using an enzyme-linked immunosorbent assay (ELISA; Meso Scale Discovery (MSD), Gaithersburg, Md.) and specific primary antibodies from MSD.
(§2) On day 1, PC3 cells (ATCC #[…]) were seeded into PerkinElmer MW96 plates at 25.000 cells per well, in 75 μl complete culture medium (DMEM high glucose, AQmedia™, D0819, Sigma-Aldrich) containing 10% heat inactivated FCS and incubated at 37° C., […] during 24 hours. On day 2, compound or DMSO (0.3%) was added and cells were further incubated for 60 min at 37° C., 5% CO2 in a total volume of 100 μl of medium.
(§3) The phosphoprotein assay was executed according to vendor instructions in the Phospho-Akt (Ser473) Assay Whole Cell Lysate Kit (MSD #K15100D-3) and the Phospho-Akt (Thr308) Assay Whole Cell Lysate Kit (MSD #K151DYD-3) using the lysis, blocking and wash buffer provided.
(§4) Briefly, at the end of the cell treatment period, media were removed by aspiration and adherent cells were lysed in 50 μl ice-cold lysis buffer. MSD plates are supplied pre-coated with capture antibodies for Phospho-Akt (Ser473 and Thr308). After blocking, lysates from tissue culture plates were added and plates were washed. Then, a solution containing the detection antibody (anti-total Akt conjugated with an electrochemiluminescent compound-MSD Sulfo-tag label) was added. The signals were detected using an MSD SECTOR Imager 6000 and are proportional to the phospho-Akt titres.
(§5) Data were processed. The percentage of inhibition was plotted against the log concentration of test compounds, and the sigmoidal log concentration-effect curve of best fit was calculated by nonlinear regression analysis. From these concentration-response curves, the IC50 values were calculated. Five concentrations were used for curve fitting.

[2] = system: Akt phosphorylated at Ser473 in PC-3 cells; experiment: Cellular assay: phosphorylation of Akt (Ser473) in PC-3 cells, MSD ELISA; assay type: cell-based; conditions: 60 min compound incubation, read-out: IC50 pAkt_S473
Protocol: as §1, §2, §3, §4, §5

[3] = molecular target: T1, PIK3Cγ_h (Homo sapiens, UniProt P48736); experiment: Enzyme binding assay (KINOMEscan); conditions: DiscoveRx
T1 construct: purchased DiscoveRx Corporation
T1 sequence (P48736 whole entry): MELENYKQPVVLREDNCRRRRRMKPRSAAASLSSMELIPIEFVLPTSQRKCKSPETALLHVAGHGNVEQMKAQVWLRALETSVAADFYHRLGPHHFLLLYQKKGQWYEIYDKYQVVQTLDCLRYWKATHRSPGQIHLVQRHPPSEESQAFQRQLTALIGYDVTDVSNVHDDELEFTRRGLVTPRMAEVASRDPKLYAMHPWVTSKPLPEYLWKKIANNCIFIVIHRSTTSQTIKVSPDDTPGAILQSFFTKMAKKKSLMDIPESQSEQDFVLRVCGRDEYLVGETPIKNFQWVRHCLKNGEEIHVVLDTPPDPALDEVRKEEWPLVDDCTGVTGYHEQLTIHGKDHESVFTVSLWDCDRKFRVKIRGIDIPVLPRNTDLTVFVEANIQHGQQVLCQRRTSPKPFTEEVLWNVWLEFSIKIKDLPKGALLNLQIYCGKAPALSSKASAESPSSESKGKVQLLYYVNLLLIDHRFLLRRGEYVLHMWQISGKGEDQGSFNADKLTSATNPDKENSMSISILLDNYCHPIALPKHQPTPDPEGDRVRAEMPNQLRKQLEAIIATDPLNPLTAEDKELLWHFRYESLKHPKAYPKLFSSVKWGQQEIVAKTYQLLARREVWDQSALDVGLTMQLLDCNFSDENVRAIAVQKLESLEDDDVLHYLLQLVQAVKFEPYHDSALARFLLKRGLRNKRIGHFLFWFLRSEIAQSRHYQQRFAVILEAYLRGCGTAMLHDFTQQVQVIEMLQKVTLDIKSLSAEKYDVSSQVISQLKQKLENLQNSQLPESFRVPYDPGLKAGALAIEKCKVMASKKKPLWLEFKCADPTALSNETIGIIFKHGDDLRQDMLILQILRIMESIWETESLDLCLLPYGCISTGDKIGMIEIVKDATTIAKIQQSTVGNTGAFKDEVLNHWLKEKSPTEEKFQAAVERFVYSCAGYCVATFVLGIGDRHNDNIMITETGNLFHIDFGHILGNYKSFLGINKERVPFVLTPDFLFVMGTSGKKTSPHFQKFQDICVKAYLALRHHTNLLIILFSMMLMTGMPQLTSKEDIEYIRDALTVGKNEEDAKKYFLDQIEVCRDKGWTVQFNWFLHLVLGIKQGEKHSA
Protocol: (§6) Enzyme Binding Assays (KINOMEscan®)
(§7) Kinase enzyme binding affinities of compounds disclosed herein were determined using the KINOMEscan technology performed by DiscoveRx Corporation, San Diego, Calif., USA (www.kinomescan.com). Table A reports the obtained Kd values (nM), with the Kd being the inhibitor binding constant: […]

[4] = molecular target: T2, PIK3Cδ_h (Homo sapiens, UniProt O00329); experiment: Enzyme binding assay (KINOMEscan); conditions: DiscoveRx
T2 construct: purchased DiscoveRx Corporation
T2 sequence (O00329 1-1044): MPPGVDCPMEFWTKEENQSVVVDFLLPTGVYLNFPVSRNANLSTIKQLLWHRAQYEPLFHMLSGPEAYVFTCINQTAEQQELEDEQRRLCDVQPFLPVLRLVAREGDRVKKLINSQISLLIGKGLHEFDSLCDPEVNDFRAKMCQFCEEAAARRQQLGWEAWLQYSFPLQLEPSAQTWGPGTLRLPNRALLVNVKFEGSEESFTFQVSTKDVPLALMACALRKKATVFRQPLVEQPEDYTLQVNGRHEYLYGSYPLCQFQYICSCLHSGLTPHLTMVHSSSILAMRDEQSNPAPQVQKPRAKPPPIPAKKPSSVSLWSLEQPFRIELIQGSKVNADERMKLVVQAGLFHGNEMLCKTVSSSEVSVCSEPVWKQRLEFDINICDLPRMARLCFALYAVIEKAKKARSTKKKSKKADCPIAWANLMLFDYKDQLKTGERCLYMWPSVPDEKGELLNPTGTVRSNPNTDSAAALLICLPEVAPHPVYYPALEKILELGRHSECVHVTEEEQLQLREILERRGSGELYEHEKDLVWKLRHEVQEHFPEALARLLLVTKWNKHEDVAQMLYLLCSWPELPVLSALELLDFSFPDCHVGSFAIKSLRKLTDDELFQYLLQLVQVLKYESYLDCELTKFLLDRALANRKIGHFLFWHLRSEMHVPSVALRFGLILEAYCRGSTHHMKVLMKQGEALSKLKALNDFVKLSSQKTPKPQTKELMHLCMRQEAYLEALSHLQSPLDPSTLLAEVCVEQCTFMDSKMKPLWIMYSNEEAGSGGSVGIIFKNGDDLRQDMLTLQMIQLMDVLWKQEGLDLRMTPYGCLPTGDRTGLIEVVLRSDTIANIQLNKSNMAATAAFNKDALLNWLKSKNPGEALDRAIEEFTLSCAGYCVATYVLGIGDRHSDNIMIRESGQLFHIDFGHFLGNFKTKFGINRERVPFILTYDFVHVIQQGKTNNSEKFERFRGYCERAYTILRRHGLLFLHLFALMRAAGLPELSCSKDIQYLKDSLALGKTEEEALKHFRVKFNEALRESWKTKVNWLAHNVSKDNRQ
Protocol: as §6, §7

[5] = molecular target: T3, PIK3Cβ_h (Homo sapiens, UniProt P42338); experiment: Enzyme binding assay (KINOMEscan); conditions: DiscoveRx
T3 construct: purchased DiscoveRx Corporation
T3 sequence (P42338 whole entry): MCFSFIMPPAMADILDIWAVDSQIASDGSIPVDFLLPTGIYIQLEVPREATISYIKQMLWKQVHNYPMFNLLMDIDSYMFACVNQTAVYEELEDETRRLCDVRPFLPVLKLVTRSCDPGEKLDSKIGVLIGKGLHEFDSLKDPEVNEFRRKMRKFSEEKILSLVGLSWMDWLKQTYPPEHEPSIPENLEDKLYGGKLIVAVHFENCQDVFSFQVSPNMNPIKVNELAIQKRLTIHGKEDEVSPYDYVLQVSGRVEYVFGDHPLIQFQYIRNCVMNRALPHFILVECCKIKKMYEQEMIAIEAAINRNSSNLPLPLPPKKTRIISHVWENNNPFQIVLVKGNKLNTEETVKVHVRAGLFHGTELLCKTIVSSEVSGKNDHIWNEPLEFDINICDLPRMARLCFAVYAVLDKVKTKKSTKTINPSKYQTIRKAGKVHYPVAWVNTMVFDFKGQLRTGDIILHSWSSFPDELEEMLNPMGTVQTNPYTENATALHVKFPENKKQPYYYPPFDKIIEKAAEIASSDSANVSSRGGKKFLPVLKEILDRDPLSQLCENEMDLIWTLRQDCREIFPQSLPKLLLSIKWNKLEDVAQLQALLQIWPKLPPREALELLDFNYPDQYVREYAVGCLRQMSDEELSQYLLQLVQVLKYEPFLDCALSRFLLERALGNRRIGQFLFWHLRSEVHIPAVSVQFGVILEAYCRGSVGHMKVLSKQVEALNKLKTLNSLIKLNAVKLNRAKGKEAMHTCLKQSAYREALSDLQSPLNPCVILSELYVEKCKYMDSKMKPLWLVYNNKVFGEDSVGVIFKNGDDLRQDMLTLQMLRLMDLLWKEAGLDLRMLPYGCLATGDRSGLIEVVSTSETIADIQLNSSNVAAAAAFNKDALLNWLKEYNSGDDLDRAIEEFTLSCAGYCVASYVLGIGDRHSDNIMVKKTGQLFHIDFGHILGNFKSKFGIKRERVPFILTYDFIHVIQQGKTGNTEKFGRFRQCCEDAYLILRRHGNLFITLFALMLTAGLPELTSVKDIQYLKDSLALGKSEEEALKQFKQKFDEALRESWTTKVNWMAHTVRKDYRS
Protocol: as §6, §7

[6] = molecular target: T4, MTOR_h (Homo sapiens, UniProt P42345); experiment: Enzyme binding assay (KINOMEscan); conditions: DiscoveRx
T4 construct: purchased DiscoveRx Corporation
Protocol: as §6, §7

[7] = molecular target: T5, PIK3Cα_h (Homo sapiens, UniProt P42336); experiment: Enzyme binding assay (KINOMEscan); conditions: DiscoveRx
T5 construct: purchased DiscoveRx Corporation
T5 sequence (P42336 whole entry): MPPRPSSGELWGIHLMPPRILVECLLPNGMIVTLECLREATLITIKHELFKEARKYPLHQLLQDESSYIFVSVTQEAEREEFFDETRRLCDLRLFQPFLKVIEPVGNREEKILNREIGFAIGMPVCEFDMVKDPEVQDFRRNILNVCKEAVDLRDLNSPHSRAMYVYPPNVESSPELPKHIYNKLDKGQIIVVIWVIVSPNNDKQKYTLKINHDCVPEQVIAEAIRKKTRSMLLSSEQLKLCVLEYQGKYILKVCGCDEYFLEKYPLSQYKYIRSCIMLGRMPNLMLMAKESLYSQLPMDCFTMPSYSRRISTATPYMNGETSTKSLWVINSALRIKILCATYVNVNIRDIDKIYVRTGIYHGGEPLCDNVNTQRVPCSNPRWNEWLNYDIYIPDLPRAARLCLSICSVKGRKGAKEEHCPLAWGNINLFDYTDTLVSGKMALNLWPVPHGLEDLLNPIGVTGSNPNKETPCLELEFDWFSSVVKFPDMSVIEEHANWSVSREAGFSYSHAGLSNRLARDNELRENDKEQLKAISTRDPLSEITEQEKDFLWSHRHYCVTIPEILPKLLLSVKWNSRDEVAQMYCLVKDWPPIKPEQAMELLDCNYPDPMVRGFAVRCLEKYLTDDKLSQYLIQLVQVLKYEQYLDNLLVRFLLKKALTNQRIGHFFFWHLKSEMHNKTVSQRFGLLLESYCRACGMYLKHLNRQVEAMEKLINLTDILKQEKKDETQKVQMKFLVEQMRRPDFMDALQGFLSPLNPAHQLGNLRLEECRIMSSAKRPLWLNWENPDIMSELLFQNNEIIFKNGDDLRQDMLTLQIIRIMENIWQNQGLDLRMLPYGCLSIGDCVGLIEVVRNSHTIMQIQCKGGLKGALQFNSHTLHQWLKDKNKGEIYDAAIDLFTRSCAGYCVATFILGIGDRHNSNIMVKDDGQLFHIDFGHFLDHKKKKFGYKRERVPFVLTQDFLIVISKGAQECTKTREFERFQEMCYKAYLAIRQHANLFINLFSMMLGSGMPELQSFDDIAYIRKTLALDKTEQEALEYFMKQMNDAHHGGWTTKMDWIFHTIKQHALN
Protocol: as §6, §7

SMILES | IC50 [1] [nM] | IC50 [2] [nM] | Kd [3] [nM] | Kd [4] [nM] | Kd [5] [nM] | Kd [6] [nM] | Kd [7] [nM] | IC50 ([1]; Homo sapiens, PC-3, 1 h) [nM] | IC50 ([2]; Homo sapiens, PC-3, 1 h) [nM]
Cc1c(Cc2c(CN3CCC4(CCS(=O)(=O)C4)C3)nc3ncc(N4CCOCC4)cn23)cccc1C(F)(F)F (single isomer, unassigned) [Compound 24a] | 170 | 347 | > 30200 | 759 | 6.5 | > 30200 | > 30200 |  | 
Cc1nc2c(C(=O)O)nc(C3=CCOCC3)cn2c1Cc1cccc(C(F)(F)F)c1C [Compound 3] |  |  | > 30200 | 468 | 1.4 | > 30200 | 11500 | > 513 | 
Cc1nc2c(CO)nc(C3=CCOCC3)cn2c1Cc1cccc(C(F)(F)F)c1C [Compound 4] |  |  | 14800 | 3020 | 7.6 | > 30200 | 12000 | 479 | > 513
Cc1c(Cc2c(CN3C[C@@H](C)N[C@@H](C)C3)nc3cnc(N4CCOCC4)cn23)cccc1C(F)(F)F [Compound 11] |  |  | > 30200 | 8130 | 120 | > 30200 | > 30200 | > 513 | > 513
Cc1c(Cc2c(CNCCO)nc3cnc(N4CCOCC4)cn23)cccc1C(F)(F)F [Compound 12] |  |  | > 30200 | 5490 | 68 | > 30200 | > 30200 | > 513 | > 513
Cc1c(Cc2c(CC(=O)N3C[C@@H](C)N[C@@H](C)C3)nc3cnc(N4CCOCC4)cn23)cccc1C(F)(F)F [Compound 14] |  |  | > 30200 | 15100 | 155 | > 30200 | > 30200 | > 513 | > 513
Cc1c(Cc2c(CC(=O)N3CC(CO)C3)nc3cnc(N4CCOCC4)cn23)cccc1C(F)(F)F [Compound 15] |  |  | > 30200 | 11200 | 141 | > 30200 | > 30200 |  | 
Cc1c(Cc2c(CO)nc3ncc(N4CCOCC4)cn23)cccc1C(F)(F)F [Compound 18] |  |  | 15300 | 442 | 1.4 | 17900 | 3500 | 43 | 72
Cc1c(Cc2c(CN3CCCC4(CNC4)C3)nc3ncc(N4CCOCC4)cn23)cccc1C(F)(F)F [Compound 20] |  |  | > 30200 | 7240 | 76 | > 30200 | > 30200 | > 513 | > 513
Cc1c(Cc2c(CN3CCC4(CCS(=O)(=O)C4)C3)nc3ncc(N4CCOCC4)cn23)cccc1C(F)(F)F (stereo not drawn) [Compound 24] |  |  | > 30200 | 1410 | 11 | > 30200 | 2570 | ~174 | 288
Cc1c(F)cccc1Cc1c(CO)nc2ncc(N3CCOCC3)cn12 [Compound 25] |  |  | 7240 | 759 | 8.9 | 5620 | 5890 | 120 | 195

Now from value to compound:

IC50 [1] [nM] | IC50 [2] [nM] | Kd [3] [nM] | Kd [4] [nM] | Kd [5] [nM] | Kd [6] [nM] | Kd [7] [nM] | IC50 ([1]; Homo sapiens, PC-3, 1 h) [nM] | IC50 ([2]; Homo sapiens, PC-3, 1 h) [nM] | SMILES
 |  | > 30200 | 697 | 6.8 | > 30200 | 4170 | 71 | 479 | Cc1c(Cc2c(CN3CCC4(CCCS4(=O)=O)C3)nc3ncc(N4CCOCC4)cn23)cccc1C(F)(F)F (stereo not drawn) [Compound 26]
 |  | > 30200 | 2570 | 363 | > 30200 | 9550 | 417 | > 513 | Cc1nc2ccc(N3CCOCC3)cn2c1Cc1cccc(C(F)(F)F)c1C [Compound 27]
 |  | 14500 | 2140 | 126 | > 30200 | 6920 | 50 | 155 | Cc1c(Cc2c(CF)nc3ccc(N4CCOCC4)cn23)cccc1C(F)(F)F [Compound 29]
 |  | > 30200 | 5750 | 631 | > 10000 | > 10000 |  |  | CCOC(=O)Cc1nc2ccc(N3CCOCC3)cn2c1Cc1cccc(C(F)(F)F)c1C [Compound 30]
 |  | > 30200 | 1350 | 20 | > 30200 | > 30200 | > 513 | 479 | Cc1c(Cc2c(CN3CCCC4(CNC4)C3)nc3ccc(N4CCOCC4)cn23)cccc1C(F)(F)F [Compound 31]
 |  | 8510 | 324 | 2.2 | 27500 | 7240 | ~178 | 191 | Cc1c(Cc2c(CN3CC4(CCN4)C3)nc3ccc(N4CCOCC4)cn23)cccc1C(F)(F)F [Compound 32]
